# Experimental data as given in patent US10576066B2, “Histone deacetylase as a modulator of PDLI expression and activity” (H. LEE MOFFITT CANCER CENTER AND RESEARCH INSTITUTE, INC., priority 2014, dated 2020).
# Experiments:
# B16 melanoma cells = experiment: In vivo growth of B16 melanoma in C57BL/6 mice treated with HDAC6 inhibitors; conditions: wild type B16 melanoma cells in C57BL/6 mice, treated daily with 20 mg/kg; FIG. 7B
# From the text: Pan-HDAC inhibitors (pan-HDACi) slows the proliferation and improves the immunogenicity of melanoma cells (Woods, D. M., et al. Melanoma Res (2013)). However, the non-selective nature of pan-HDACi makes the assumption of the specific participation of HDACs on these processes impossible. […] The next step was identifying if HDAC6KD would affect the growth of melanoma cells in vivo. […] A similar result was obtained in another experiment injecting wild type B16 melanoma cells into C57BL/6 mice treated daily with 20 mg/kg of the HDAC6inh Nexturastat A or Nexturastat B (FIG. 7B). The amount of PDL1 and activation of STAT3 was decreased in tumors isolated after the in vivo treatment with HDAC6inh (FIG. 7C).
# These in vitro results were further supported by in vivo tumor growth studies. […] A similar outcome was identified after inoculation of HDAC6KD B16 melanoma cells in C57BL/6 mice (FIG. 14A). […] This delay in tumor growth could be a reflection of their diminished proliferation and an increase in their immunogenicity leading to improved immune recognition and clearance. These studies provide critical insights into the molecular pathways that are involved in the regulatory role of HDAC6 in cell proliferation, survival, and cytokine signaling of human melanoma cells.
# B16 WT melanoma = experiment: In vivo growth of B16 WT melanoma in SCID mice treated with HDAC6 inhibitor; conditions: FIG. 14A
# Procedure: FIGS. 14A and 14B show differences in growth of melanoma cells after HDAC6 inhibition in altered immune systems. […] Mice were treated with antibodies to deplete CD4, CD8, and NK cells.
# HDAC6 = experiment: Recruitment of HDAC6 to the IL-10 promoter; format: cell-based; conditions: cells treated with STAT3 inhibitor
# From the text: HDAC6 is recruited to regulatory sequences in gene promoters such as MYC (Toropainen, S., et al. J Mol Biol. 400:284-294 (2010)), glucocorticoid receptor (Govindan, M. V. J Biol Chem. 285:4489-4510 (2010)) and estrogen receptor a-inducible genes (Palijan, A., et al. J Biol Chem. 284:30264-30274 (2009)). However, there is no evidence showing that HDAC6 is directly affecting the acetylation status of chromatin. […] Thus, the transcriptional regulatory effects observed for HDAC6 could be mediated by other regulatory factors recruited along with this deacetylase to specific DNA sequences. […] HDAC6 and STAT3 are recruited to the same region of the IL-10 promoter, and the recruitment of HDAC6 is impaired when cells are treated with the STAT3 inhibitor CPA-7.
# PDL1 [1] = experiment: PDL1 expression by flow cytometry in melanoma cell lines treated with HDACi; format: cell-based; conditions: two murine and five human melanoma cell lines, up to 72 hours, relative to DMSO; FIG. 22
# Procedure: B16, WM983A, Sk-Mel21, WM1366, WM35, and WM793 melanoma cells lines were treated with DMSO (“D”), 10 nM LBH589 (“LB”), 500 nM MGCD0103 (“MG”), or 500 nM MS275 (“MS”) for 72 hours. PDL1 expression was assessed by flow cytometry. Histograms shown are for PDL1 expression or autofluorescence (solid grey) of 10,000 cells or more.
# Melanoma cell lines were treated with DMSO, 10 nM LBH589 (squares), 1.5 μM ACY1215 (triangles), 500 nM MS275 (diamonds), 500 nM CLB66 (circles), or 500 nM MGCD0103 (X). PDL1 expression at indicated time points was assessed by flow cytometry. Voltages between time point measurements was standardized using rainbow beads with standard emissions. Mean fluorescence intensity minus autofluorescencee is graphed for each time point. DMSO treatment was plotted as zero hours.
# In this Example, HDACi targeting class I HDACs, but not class II, is shown to augment expression of PDL1 in melanoma cells. Two murine and five human melanoma cell lines were treated for up to 72 hours with DMSO, LBH589 (pan-HDACi), MS275 (class I inhibitor), MGCD0103 (class I inhibitor), an HDAC6 specific inhibitor, or a class IIa inhibitor (FIG. 21). […] Increased expression was noted as early as 24 hours after treatment and peaked at 72 to 96 hours post-treatment (FIG. 23).
# Multiple Myeloma = conditions: preliminary studies (Santo et al. 2012); cited from earlier work
# PDL1 [2] = experiment: PDL1 expression in B16 tumors of LBH589-treated mice (flow cytometry); format: in vivo, C57BL/6 mice; conditions: 15 mg/kg IP Mon, Wed, Fri, one week, FIG. 24
# Procedure: C57BL/6 mice were injected subcutaneously with 100,000 B16 cells. When tumors became palpable, treatment with 15 mg/kg LBH589 via IP injection began on a Mon, Wed, Fri schedule. After one week of treatment, mice were sacrificed, tumors harvest and analyzed by flow cytometry for PDL1 expression.
compound,measurement,setting,value
CCCCN(Cc1ccc(C(=O)NO)cc1)C(=O)Nc1ccc2cn[nH]c2c1 [Nexturastat B],tumor growth,B16 melanoma cells,delayed tumor growth
same,in vivo growth of B16 WT melanoma,B16 WT melanoma,not significantly different
CPA-7,recruitment of HDAC6 to the IL-10 promoter,HDAC6,impaired
CCCCN(Cc1ccc(C(=O)NO)cc1)C(=O)Nc1ccccc1 [Nexturastat A],tumor growth,B16 melanoma cells,delayed tumor growth
Nc1ccccc1NC(=O)c1ccc(CNC(=O)OCc2cccnc2)cc1 [MS275],PDL1 expression,PDL1 [1],"dose dependent, increases"
O=C(CCCCCCNC(=O)c1cnc(N(c2ccccc2)c2ccccc2)nc1)NO [ACY1215],anti-tumor activity,Multiple Myeloma,important anti-tumor activity
Cc1[nH]c2ccccc2c1CCNCc1ccc(/C=C/C(=O)NO)cc1 [LBH589],PDL1 expression,PDL1 [1],"dose dependent, increases"
same,PDL1 expression in vivo,PDL1 [2],upregulates
Nc1ccccc1NC(=O)c1ccc(CNc2nccc(-c3cccnc3)n2)cc1 [MGCD0103],PDL1 expression,PDL1 [1],"dose dependent, increases"
